The values below come from ChEMBL document CHEMBL4800730 (2021).

The target of assay [1] is RAC-alpha serine/threonine-protein kinase (Homo sapiens, UniProt P31749). Kind of assay: Homogeneous Time Resolved Fluorescence (HTRF) assay (AKT1).
Assay [2] is described as follows: NanoBRET assay (AKT1). To be noted: Homo sapiens. In general terms: In BRET a luciferase serves as donor, and the signal depends on an acceptor being close.
Assay [3] can be described thus: NanoBRET assay (AKT2). As to conditions: Homo sapiens; call rule not given here.
A short description of assay [4]: NanoBRET assay (AKT3). As to conditions: Homo sapiens.
A further assay concerns ZR-75-1. Kind of assay: CellTiter-Glo luminescent cell viability assay (CTG) with ZR-75-1 cells. It is filed as functional, cell-based. As to conditions: Homo sapiens.
The subject of the next assay is AN3-CA. In words: CellTiter-Glo luminescent cell viability assay (CTG) with AN3-CA cells. The assay is classed as functional, cell-based. To be noted: Homo sapiens.

RAC-alpha serine/threonine-protein kinase, sequence (P31749 whole entry): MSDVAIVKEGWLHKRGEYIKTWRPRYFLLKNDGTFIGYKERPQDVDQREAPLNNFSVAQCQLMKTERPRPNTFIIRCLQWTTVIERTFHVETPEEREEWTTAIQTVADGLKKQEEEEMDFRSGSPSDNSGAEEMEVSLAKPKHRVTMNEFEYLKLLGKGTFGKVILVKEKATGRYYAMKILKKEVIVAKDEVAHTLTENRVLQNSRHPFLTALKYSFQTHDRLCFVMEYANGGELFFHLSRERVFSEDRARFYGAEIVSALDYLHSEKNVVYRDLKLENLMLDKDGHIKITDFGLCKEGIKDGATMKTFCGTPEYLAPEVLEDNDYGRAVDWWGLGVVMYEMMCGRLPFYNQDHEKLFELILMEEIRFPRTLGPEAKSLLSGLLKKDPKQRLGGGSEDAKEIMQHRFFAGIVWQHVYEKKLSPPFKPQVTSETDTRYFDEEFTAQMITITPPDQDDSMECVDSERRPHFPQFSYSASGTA

In general, IC50 refers to the concentration needed to halve the response being measured. Low values mean greater potency, high ones weaker potency. As a reminder, the EC50 is the concentration needed to bring the measured effect to its halfway point. A high value points to a need for much substance. As to `C=CC(=O)Nc1ccc2[nH]c(=O)n(C3CCN(Cc4ccc(-c5ccc6c(c5)NC(=O)CO6)cc4)CC3)c2c1` [RL2578], the half-inhibitory concentration (IC50) in assay [1] was 9.2 µM (not active); in assay [2], 1.9 µM (not active); in assay [3], 8.3 µM (not active); in assay [4] it was 18 µM (not active). The 50% effective concentration (EC50) in assay [2] is recorded as 3.5 µM (not active); in assay [3], 4.8 µM (not active); in assay [4] it was 9.3 µM (not active); with ZR-75-1, 4.2 µM (not active); with AN3-CA, 18 µM (not active).
